Laboratory results taken from publication PMC12133574 (Nature Immunology, 2025).
Like-named read-outs stand apart in the source and are kept apart here.

Tests used:
[1] = tested on: activated human T cells (proliferation); assay: cells; assay type: cell-based; settings: for EC50: Homo sapiens, T-cell; for effect of the substance on T cell proliferation: activated human T cells; for restoration of adenosine-mediated inhibition of T cell proliferation: uridine, cytidine all 30 µM
[2] = tested on: pyrimidine and purine metabolites in activated human T cells; assay type: cell-based; settings: 24 h; for levels of UMP, UDP, UTP and CTP (metabolites downstream of UMPS) / levels of carbamoyl aspartate, DHO and orotate: adenosine-exposed activated human T cells
[3] = tested on: NLVPMVATV peptide-pulsed T2 cells; assay: Antigen-specific cell killing assay; assay type: cell-based, human
[4] = tested on: TNF production by activated human T cells; assay type: cell-based
[5] = tested on: NLVPMVATV-specific CD8^+ T cells in PBMCs; assay: CMV pp65 antigen recall assay, tetramer staining; assay type: cell-based, human; settings: in the presence of ATP (300 µM); EOS301984 300 nM, anti-PD-1 10 µg ml^-1; representative donor
[6] = tested on: activated human T cells (viability); assay type: cell-based; settings: for effect of the substance on T cell viability: activated human T cells
[7] = tested on: PD-1^+TIM-3^+CD39^+ CD8^+ TILs from NSCLC; assay type: cell-based, human; settings: ex vivo stimulated PD-1^+TIM-3^+CD39^+ CD8^+ T cells, adenosine 100 µM, EOS301984 300 nM
[8] = tested on: mitochondrial respiration of activated human T cells; assay type: cell-based
[9] = tested on: IFNγ production by activated human T cells; assay type: cell-based
activated human T cells = assay: [3H]adenosine uptake assay; assay type: cell-based; settings: dilazep 1 µM, one value per donor
[10] = in the presence of 100 µM adenosine, 72 h activation

Question: `Nc1ncnc2nc(-c3ccc(N4CCOCC4)nc3)cc(-c3cccc(Br)c3)c12` [ABT-702, 4-amino-5-(3-bromophenyl)-7-(6-morpholino-pyridin-3-yl)pyrido[2,3-d]pyrimidine, reference compound] was tested. Which EC50 ([1]; read-out: EC50, rescue of activated CD8^+ T cell proliferation) did it give?
Answer: 23.8 nM

Question: And the “levels of UMP, UDP, UTP and CTP (metabolites downstream of UMPS)” value (shortened to “levels of UMP, UDP, UTP and CTP”) [2]?
Answer: restored pyrimidine metabolism

Question: Which results are given for `Nc1ncnc2c1ncn2[C@@H]1O[C@H](COP(=O)(O)OP(=O)(O)OP(=O)(O)O)[C@@H](O)[C@H]1O` [ATP]?
Answer: antigen-specific killing by the PBMC population ([3]; ATP present during the expansion phase): reduced; effect of the substance on T cell proliferation [1]: suppressed; effect of the substance on TNF production [4]: suppressed; Tet^+ of CD8^+ T cells [5]: profound suppression; effect of the substance on T cell viability [6]: suppressed

Question: How did the “effect of the substance on T cell proliferation” value [1] turn out when `Nc1ncnc2c1ncn2[C@@H]1O[C@H](CO)[C@@H](O)[C@H]1O` [Adenosine, adenosine] was run?
Answer: inhibited

Question: What about the “fraction of cells producing IFNγ and granzyme B” value [7] of the same compound?
Answer: suppressed

Question: What about the “levels of UMP, UDP, UTP and CTP” value [2] of the same compound?
Answer: dose-dependently depleted

Question: And the “levels of carbamoyl aspartate, DHO and orotate” value [2]?
Answer: increase

Question: And the “levels of adenosine metabolites (purines)” value ([2]; adenosine-treated versus DMSO-treated T cells)?
Answer: Dose-dependent increases

Question: And the “mitochondrial respiration (OCR)” value [8]?
Answer: reduced

Question: And the “effect of the substance on TNF production” value [4]?
Answer: inhibited

Question: And the “effect of the substance on T cell viability” value [6]?
Answer: loss of viability

Question: And the “effect of the substance on IFNγ production” value ([9]; activated human T cells)?
Answer: inhibited

Question: For `COc1cc(C(=O)OCCCN2CCCN(CCCOC(=O)c3cc(OC)c(OC)c(OC)c3)CC2)cc(OC)c1OC` [Dilazep, dilazep, reference compound], which “restoration of T cell proliferation” value [1, 10] is on record?
Answer: restored

Question: What about the “[3H]adenosine uptake” value (activated human T cells) of the same compound?
Answer: reduced

Question: And the “levels of UMP, UDP, UTP and CTP” value [2]?
Answer: increased

Question: What about the “levels of carbamoyl aspartate, DHO and orotate” value [2] of the same compound?
Answer: reduced

Question: And the “restoration of T cell viability” value [6, 10]?
Answer: restored

Question: What about the IFNγ production ([9]; in the presence of 100 µM adenosine) of the same compound?
Answer: restored

Question: Which results are given for `O=c1ccn([C@@H]2O[C@H](CO)[C@@H](O)[C@H]2O)c(=O)[nH]1` [Uridine, uridine]?
Answer: EC50 ([1]; read-out: EC50, rescue of T cell proliferation): 1100 nM; effect of the substance on T cell proliferation [1]: did not suppress; restoration of adenosine-mediated inhibition of T cell proliferation [1]: restored; levels of UMP, UDP, UTP and CTP (metabolites downstream of UMPS) [2]: normalized pyrimidine levels

Question: Which results are given for `Nc1ccn([C@@H]2O[C@H](CO)[C@@H](O)[C@H]2O)c(=O)n1` [cytidine]?
Answer: effect of the substance on T cell proliferation [1]: did not suppress; restoration of adenosine-mediated inhibition of T cell proliferation [1]: not observed

Question: “Anti-PD-1: anti-PD-1 antibody OPDIVO (nivolumab), Bristol-Myers Squibb [reference compound]” was tested. Which “antigen-specific killing by the PBMC population” value ([3]; in the absence of ATP) did it give?
Answer: did not have a clear effect
